In article PMC10718076, “1,2-Disubstituted bicyclo[2.1.1]hexanes as saturated bioisosteres of ortho-substituted benzene” (Chemical Science, 2023):
Read-outs that look alike come from different tables or passages of the source.

How the values were obtained:
[1] = both, human, pH 7.4
[2] = in vitro; conditions: both, human

Q: With `O=C(O)Cc1ccccc1Nc1c(Cl)cccc1Cl` [Diclofenac] as the molecule, how does the “% Remaining, Mean of 2” value ([1]; microsomes, 25 min, 2 µM) read?
A: The value was 9%.

Q: And the “% Remaining, Mean of 2” value ([1]; s9, 25 min, 2 μM)?
A: The value was 9%.

Q: And the microsomal CLint at 2 µM ([2]; microsomes, pH 7.4)?
A: The microsomal CLint at 2 µM was 173 µL/min/mg.

Q: And the microsomal CLint at 2 μM ([2]; microsomes, pH 7.4)?
A: Its microsomal CLint at 2 μM is 272 µL/min/mg.

Q: And the k el at 2 µM ([2]; pH 7.4, kel)?
A: Its k el at 2 µM is 0.0012 s⁻¹.

Q: And the k el at 2 μM ([2]; pH 7.4, kel)?
A: Its k el at 2 μM is 0.00123 s⁻¹.

Q: What about the microsomal CLint at 2 μM ([2]; s9, pH 7.4) of the same molecule?
A: The microsomal CLint at 2 μM was 178 µL/min/mg.
